Pest or weed control, BAW rating and CL rating data for 23 compounds are collected here from US20230077362A1 (CORTEVA AGRISCIENCE LLC, priority 2019, published 2023).

SMILES strings stand for the structures.

Test [1] concerns Beet Armyworm (Spodoptera exigua) ("BAW"), second instar larvae. The experiment in a line: Bioassay on beet armyworm (BAW), 128-well diet tray assay. In kind it is in vivo. The conditions noted are these: for pest or weed control at 50 µg/cm2: Spodoptera exigua, read-out: BAW rating; for BAW rating: Table ABC, species BAW, C = not tested, D = no activity noticed. Put shortly: (§1)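 Sealed trays, 25° C., 14:10 light:dark, 5–7 d. Per-well % mortality recorded, mean of eight wells reported.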

Test [2] has as its system Cabbage Looper (Trichoplusia ni) ("CL"), second instar larvae. The experiment in a line: Bioassay on cabbage looper (CL), 128-well diet tray assay. It is filed as in vivo. The settings on record: for pest or weed control at 50 µg/cm2: Trichoplusia ni, read-out: CL rating; for CL rating: Table ABC, species CL, C = not tested, D = no activity noticed. An outline of the steps:
as §1

In the case of `Cc1ccc(COCC(F)(F)F)c(N2C(=O)CS/C2=N\C(=O)Nc2ccc(-c3ncn(-c4ccc(S(F)(F)(F)(F)F)cc4)n3)cc2C#N)c1` [Compound J569, (Z)-1-(2-Cyano-4-(1-(4-(pentafluoro-λ^6-sulfaneyl)phenyl)-1H-1,2,4-triazol-3-yl)phenyl)-3-(3-(5-methyl-2-((2,2,2-trifluoroethoxy)methyl)phenyl)-4-oxothiazolidin-2-ylidene)urea], the pest or weed control at 50 µg/cm2 in test [1] and in test [2] was 50 to 100% each time.

For the compound `Cc1ccc(COCc2ccccc2)c(N2C(=O)CS/C2=N\C(=O)Nc2ccc(-c3ncn(-c4ccc(OC(F)(F)F)cc4)n3)cc2F)c1` [Compound J571, (Z)-1-(3-(2-((Benzyloxy)methyl)-5-methylphenyl)-4-oxothiazolidin-2-ylidene)-3-(2-fluoro-4-(1-(4-(trifluoromethoxy)phenyl)-1H-1,2,4-triazol-3-yl)phenyl)urea], the pest or weed control at 50 µg/cm2 in test [1] and in test [2] was 50 to 100% in each case.

`Cc1cc(-c2ncn(-c3ccc(OC(F)(F)F)cc3)n2)ccc1NC(=O)/N=C1\SCC(=O)N1c1cccc(C)c1COCC(F)(F)F` [Compound J576]: the BAW rating result in test [1] was “A (50-100)”. For the same compound, the CL rating result in test [2] is reported as “A (50-100)”.

As for `COc1ccc(COCC(F)(F)F)c(N2C(=O)CS/C2=N\C(=O)Nc2ccc(-c3ncn(-c4ccc(S(F)(F)(F)(F)F)cc4)n3)cc2C)c1` [Compound J577], the BAW rating result in test [1] is reported as “A (50-100)”. The CL rating entry in test [2] is reported as “A (50-100)”.

Turning to `Cc1cc(-c2ncn(-c3ccc(S(F)(F)(F)(F)F)cc3)n2)ccc1NC(=O)/N=C1\SCC(=O)N1c1cccc(C)c1COCC(F)(F)F` [Compound J578], in test [1], the BAW rating entry was “A (50-100)”. In test [2], the CL rating entry is recorded as “A (50-100)”.

With `Cc1cc(-c2ncn(-c3ccc(C(F)(F)F)cc3)n2)ccc1NC(=O)/N=C1\SCC(=O)N1c1cccc(C)c1COCC(F)(F)F` [Compound J579], in test [1], the BAW rating result is given as “A (50-100)”. The CL rating result in test [2] is listed as “A (50-100)”.

Regarding `COc1ccc(COCC(F)(F)F)c(N2C(=O)CS/C2=N\C(=O)Nc2ccc(-c3ncn(-c4ccc(C(F)(F)F)cc4)n3)cc2C)c1` [Compound J580], the BAW rating entry in test [1] is “A (50-100)”. In test [2], the CL rating entry is “A (50-100)”.

Turning to `COc1ccc(COCC(F)(F)F)c(N2C(=O)CS/C2=N\C(=O)Nc2ccc(-c3ncn(-c4ccc(C(F)(F)F)cc4)n3)cc2F)c1` [Compound J581], the BAW rating entry in test [1] is given as “A (50-100)”. Further, the CL rating entry in test [2] was “A (50-100)”.

Turning to `CCOCc1ccc(C)cc1N1C(=O)CS/C1=N\C(=O)Nc1ccc(-c2ncn(-c3ccc(S(F)(F)(F)(F)F)cc3)n2)cc1C#N` [Compound J582], the pest or weed control at 50 µg/cm2 in test [1] and in test [2] was 50 to 100% throughout.

As for `CCCc1ccc(C)cc1N1C(=O)CS/C1=N\C(=O)Nc1ccc(-c2ncn(-c3ccc(S(F)(F)(F)(F)F)cc3)n2)cc1C#N` [Compound J583, (Z)-1-(2-Cyano-4-(1-(4-(pentafluoro-λ^6-sulfaneyl)phenyl)-1H-1,2,4-triazol-3-yl)phenyl)-3-(3-(5-methyl-2-propylphenyl)-4-oxothiazolidin-2-ylidene)urea], the pest or weed control at 50 µg/cm2 in test [1] and in test [2] was 50 to 100% each time.

As for `Cc1ccc(OCCC(F)(F)F)c(N2C(=O)CS/C2=N\C(=O)Nc2ccc(-c3ncn(-c4ccc(S(F)(F)(F)(F)F)cc4)n3)cc2C#N)c1` [Compound J584, (Z)-1-(2-Cyano-4-(1-(4-(pentafluoro-λ^6-sulfaneyl)phenyl)-1H-1,2,4-triazol-3-yl)phenyl)-3-(3-(5-methyl-2-(3,3,3-trifluoropropoxy)phenyl)-4-oxothiazolidin-2-ylidene)urea], the pest or weed control at 50 µg/cm2 in test [1] and in test [2] was 50 to 100% in each case.

`CC(C)c1ccc(N(C)C)cc1N1C(=O)CS/C1=N\C(=O)Nc1ccc(-c2ncn(-c3ccc(S(F)(F)(F)(F)F)cc3)n2)cc1C#N` [Compound J585]: in test [1], the BAW rating result was “A (50-100)”. Besides, in test [2], the CL rating result is “A (50-100)”.

For `CCOC(C)c1ccc(C)cc1N1C(=O)CS/C1=N\C(=O)Nc1ccc(-c2ncn(-c3ccc(S(F)(F)(F)(F)F)cc3)n2)cc1C#N` (stereo not shown) [Compound J586, (Z)-1-(2-Cyano-4-(1-(4-(pentafluoro-λ^6-sulfaneyl)phenyl)-1H-1,2,4-triazol-3-yl)phenyl)-3-(3-(2-(1-ethoxyethyl)-5-methylphenyl)-4-oxothiazolidin-2-ylidene)urea], the pest or weed control at 50 µg/cm2 in test [1] and in test [2] was 50 to 100% in each case.

For the compound `Cc1cc(COCC(F)(F)F)c(N2C(=O)CS/C2=N\C(=O)Nc2ccc(-c3ncn(-c4ccc(S(F)(F)(F)(F)F)cc4)n3)cc2C#N)cc1C` [Compound J587, (Z)-1-(2-Cyano-4-(1-(4-(pentafluoro-λ^6-sulfaneyl)phenyl)-1H-1,2,4-triazol-3-yl)phenyl)-3-(3-(4,5-dimethyl-2-((2,2,2-trifluoroethoxy)methyl)phenyl)-4-oxothiazolidin-2-ylidene)urea], the pest or weed control at 50 µg/cm2 in test [1] and in test [2] was 50 to 100% throughout.

On to `COc1cc(COCC(F)(F)F)c(N2C(=O)CS/C2=N\C(=O)Nc2ccc(-c3ncn(-c4ccc(S(F)(F)(F)(F)F)cc4)n3)cc2C#N)cc1OC` [Compound J588, (Z)-1-(2-Cyano-4-(1-(4-(pentafluoro-λ^6-sulfaneyl)phenyl)-1H-1,2,4-triazol-3-yl)phenyl)-3-(3-(4,5-dimethoxy-2-((2,2,2-trifluoroethoxy)methyl)phenyl)-4-oxothiazolidin-2-ylidene)urea], for which the pest or weed control at 50 µg/cm2 in test [1] and in test [2] was 50 to 100% throughout.

`Cc1ccc(C(C)C)c(N2C(=O)CS/C2=N\C(=O)Nc2ccc(-c3cn(-c4ccc(S(F)(F)(F)(F)F)cc4)cn3)cc2F)c1` [Compound J589, (Z)-1-(2-fluoro-4-(1-(4-(pentafluoro-λ^6-sulfaneyl)phenyl)-1H-imidazol-4-yl)phenyl)-3-(3-(2-isopropyl-5-methylphenyl)-4-oxothiazolidin-2-ylidene)urea]: the pest or weed control at 50 µg/cm2 in test [1] and in test [2] was 50 to 100% each time.

In the case of `CCCc1ccc(C)cc1N1C(=O)CS/C1=N\C(=O)Nc1ccc(-c2cn(-c3ccc(S(F)(F)(F)(F)F)cc3)cn2)cc1F` [Compound J590, (Z)-1-(2-Fluoro-4-(1-(4-(pentafluoro-λ^6-sulfaneyl)phenyl)-1H-imidazol-4-yl)phenyl)-3-(3-(5-methyl-2-propylphenyl)-4-oxothiazolidin-2-ylidene)urea], the pest or weed control at 50 µg/cm2 in test [1] and in test [2] was 50 to 100% throughout.

For the compound `COC(C)c1ccc(C)cc1N1C(=O)CS/C1=N\C(=O)Nc1ccc(-c2cn(-c3ccc(S(F)(F)(F)(F)F)cc3)cn2)cc1F` (stereo not shown) [Compound J591, (Z)-1-(2-Fluoro-4-(1-(4-(pentafluoro-λ^6-sulfaneyl)phenyl)-1H-imidazol-4-yl)phenyl)-3-(3-(2-(1-methoxyethyl)-5-methylphenyl)-4-oxothiazolidin-2-ylidene)urea], the pest or weed control at 50 µg/cm2 in test [1] and in test [2] was 50 to 100% each time.

As for `COCc1ccc(C)cc1N1C(=O)CS/C1=N\C(=O)Nc1ccc(-c2cn(-c3ccc(S(F)(F)(F)(F)F)cc3)cn2)cc1F` [Compound J592, (Z)-1-(2-Fluoro-4-(1-(4-(pentafluoro-λ^6-sulfaneyl)phenyl)-1H-imidazol-4-yl)phenyl)-3-(3-(2-(methoxymethyl)-5-methylphenyl)-4-oxothiazolidin-2-ylidene)urea], the pest or weed control at 50 µg/cm2 in test [1] and in test [2] was 50 to 100% each time.

With `CCOC(C)c1ccc(C)cc1N1C(=O)CS/C1=N\C(=O)Nc1ccc(-c2cn(-c3ccc(S(F)(F)(F)(F)F)cc3)cn2)cc1F` (stereo not shown) [Compound J594, (Z)-1-(3-(2-(1-Ethoxyethyl)-5-methylphenyl)-4-oxothiazolidin-2-ylidene)-3-(2-fluoro-4-(1-(4-(pentafluoro-λ^6-sulfaneyl)phenyl)-1H-imidazol-4-yl)phenyl)urea], the pest or weed control at 50 µg/cm2 in test [1] and in test [2] was 50 to 100% in each case.

For `CCCOc1ccc(C)cc1N1C(=O)CS/C1=N\C(=O)Nc1ccc(-c2cn(-c3ccc(S(F)(F)(F)(F)F)cc3)cn2)cc1F` [Compound J595, (Z)-1-(2-Fluoro-4-(1-(4-(pentafluoro-λ^6-sulfaneyl)phenyl)-1H-imidazol-4-yl)phenyl)-3-(3-(5-methyl-2-propoxyphenyl)-4-oxothiazolidin-2-ylidene)urea], the pest or weed control at 50 µg/cm2 in test [1] and in test [2] was 50 to 100% in each case.

Turning to `Cc1ccc(OCC(F)(F)F)c(N2C(=O)CS/C2=N\C(=O)Nc2ccc(-c3cn(-c4ccc(S(F)(F)(F)(F)F)cc4)cn3)cc2F)c1` [Compound J596, (Z)-1-(2-Fluoro-4-(1-(4-(pentafluoro-λ^6-sulfaneyl)phenyl)-1H-imidazol-4-yl)phenyl)-3-(3-(5-methyl-2-(2,2,2-trifluoroethoxy)phenyl)-4-oxothiazolidin-2-ylidene)urea], the pest or weed control at 50 µg/cm2 in test [1] and in test [2] was 50 to 100% throughout.

Take `Cc1ccc(OCCC(F)(F)F)c(N2C(=O)CS/C2=N\C(=O)Nc2ccc(-c3cn(-c4ccc(S(F)(F)(F)(F)F)cc4)cn3)cc2F)c1` [Compound J597, (Z)-1-(2-Fluoro-4-(1-(4-(pentafluoro-λ^6-sulfaneyl)phenyl)-1H-imidazol-4-yl)phenyl)-3-(3-(5-methyl-2-(3,3,3-trifluoropropoxy)phenyl)-4-oxothiazolidin-2-ylidene)urea]: the pest or weed control at 50 µg/cm2 in test [1] and in test [2] was 50 to 100% throughout.
